Experimental data as given in US10488417B2, “Compounds for use as imaging agents” (United Arab Emirates University, priority 2014, dated 2019).

Assays:
α-synuclein = biological target: T1, α-synuclein (Homo sapiens, UniProt P37840); assay: α-synuclein oligomerization by immunoblot analysis; assay type: biochemical; conditions: compound: α-syn molar ratios 1:1, 2:1, 4:1; 5 days
T1 construct: GST (N, cleaved yes); made in house; host or cells: E. coli BL21
Procedure: Samples of α-synuclein (20 ng) incubated alone or with the compounds were mixed with 1× sample buffer (250 mM Tris-HCl, pH 6.8, 30% glycerol, 0.02% bromophenol blue) and then separated in 15% 1 mm SDS-PAGE gels. The separated proteins were transferred to 0.45 μm nitrocellulose membranes (Whatman Gmbh-Germany) at 90 V for 80 min. The membranes were boiled for 5 min in PBS and then blocked for 1 hour with 5% non-fat milk prepared in PBS-Tween-20 (0.05%; PBST). The membranes were incubated overnight at 4° C. with the primary mouse monoclonal anti-α-syn (211) antibody, which recognizes human α-synuclein (121-125) (Santa Cruz Biotechnology, USA), at a dilution of 1:1000. The membranes were then washed several times with PBST, followed by incubation with an HRP-conjugated goat anti-mouse antibody (Dako Ltd., Ely, UK) at a dilution of 1:70,000 for 60 minutes at room temperature with gentle agitation. The membranes were then extensively washed for 25 min, and immunoreactive bands were visualized with the Super Signal West Femto Chemiluminescent Substrate Kit (Pierce, Rockford, USA) according to the manufacturer's instructions.
The effect of Gn Rb1, salvianolic acid B and dihydromyricetin on α-synuclein oligomerization was assessed by immunoblot analysis. Fresh and aged solutions of α-synuclein alone or in the presence of Gn Rb1, salvianolic acid B or dihydromyricetin were analyzed. Samples were separated in 15% SDS gels, transferred onto a nitrocellulose membrane and probed with an antibody that recognizes the amino acid residues 121-125 of α-synuclein. The majority of freshly prepared α-synuclein migrated as a band at ˜16 KDa, corresponding to α-synuclein monomers (FIGS. 4A-C).
The amount of monomeric α-synuclein in the α-synuclein aged alone samples and in the presence of compounds was quantified against a fresh α-synuclein sample that contained only the monomeric species using ImageJ software.

[1] = biological target: T2, preformed α-synuclein fibrils (Homo sapiens, UniProt P37840); assay: α-synuclein disaggregation assay on preformed fibrils (Th-T); assay type: biochemical; conditions: 25 μM preformed fibrils; for effect on preformed α-synuclein fibrils (Th-T counts): ratios 6:1, 4:1, 2:1, 48 hours, 37° C.
T2 construct: GST (N, cleaved yes); made in house; host or cells: E. coli BL21
Procedure: α-Synuclein solution in PBS (pH 7.4) was aggregated at a concentration of 25 μM as indicated above. The resulting aggregated α-synuclein was incubated either alone or with Gn Rb1 or dihydromyricetin at various molar ratios (compound: α-synuclein molar ratios of 6:1, 4:1 and 2:1). It should be noted that for the purpose of the experiment, the concentration of α-synuclein taken into account was the concentration of fresh α-synuclein. The samples were incubated at 37° C. for 48 hours on a thermomixer with continuous shaking at 800 rpm. Samples were collected at regular time points, and Th-T fluorescence was measured immediately.
Due to their high efficiency to inhibit α-synuclein fibrillation, Gn Rb1 and dihydromyricetin were assessed for their effectiveness on reversing fibrillation. 25 μM of preformed α-synuclein fibrils were incubated at 37° C. in the presence of Gn Rb1 or dihydromyricetin at varying molar ratios (compound: α-synuclein of 6:1, 4:1 and 2:1) for a period of 48 hours. By measuring the Th-T fluorescence counts (FIGS. 7A-7B), the fibril content was estimated at different time points.

α-synuclein oligomers = biological target: T3, α-synuclein oligomers (Homo sapiens, UniProt P37840); assay: Binding to α-synuclein oligomers: SEC fractions P1-P3 with UV scanning; conditions: compound: α-synuclein 4:1, 100 μM α-synuclein, 5 days
T3 construct: GST (N, cleaved yes); made in house; host or cells: E. coli BL21
Procedure: SEC was carried out using an AKTA FPLC system (GE Healthcare-Sweden) and a superdex 200 column at 4° C., in order to separate the oligomers generated from the aggregation of α-synuclein with the compounds (compound: α-synuclein molar ratio of 4:1). Monomeric α-synuclein at a concentration of 100 μM was aggregated in the presence of the compounds for 5 days as described above. At the end of the aggregation process, the sample was centrifuged for 45 min at 14,000×g at 4° C. generating a supernatant free from insoluble material. Prior to injecting 80% of the generated supernatant, the column was thoroughly equilibrated with SEC running buffer (1×PBS, pH 7.4) and the flow rate was set to 0.1 ml/min (0.5 ml/fraction). The elution of α-synuclein was monitored at absorbance wavelengths of 215 nm, 254 nm, and 280 nm. To determine the elution time of monomeric α-syn, molecular weight standards (ferritin 440 kDa, aldolase 171 kDa, abmumin 68 kDa and chymotrypsinogenA 25 kDa) and monomeric α-synuclein were co-injected into the column and eluted at the same conditions mentioned above.
For the experiments with salvianolic acid B and dihydromyricetin the fractions eluting between 7-8 ml CV were combined and labeled as oligomers (sample P1), and fractions eluting between 12-14 ml CV were combined and labeled as oligomers (sample P2), whereas the fractions eluting in the 14-16 ml CV were combined and labeled as monomers (sample P3). […]
The P1, P2 and P3 samples, representing the oligomeric and monomeric fractions of SEC, were concentrated using a speed vac (CentriVap, Labconco). […] The UV absorbance spectrum was recorded from 200-600 nm in a spectrophotometer (DU-800, Beckman-Coulter) using 10 mm quartz cuvettes (Hellma Analytics-Germany) and employing equal concentrations of the P1, P2 and P3. […]

monomeric α-synuclein = biological target: T4, monomeric α-synuclein (Homo sapiens, UniProt P37840); assay: NMR titration into monomeric α-synuclein; assay type: binding; conditions: stoichiometries of up to 6:1 compound: α-synuclein, 100 μM α-synuclein
T4 construct: made in house
Procedure: For NMR studies, recombinant ^15N-labeled α-synuclein was expressed and purified as previously described, resuspended in PBS buffer at pH 6.6. Two-dimensional ^1H-^15N HQSC spectra were acquired for α-synuclein at 100 μM concentration in the absence of Gn Rb1 and in the presence of increasing Gn Rb1: α-synuclein stoichiometries of 1:1, 4:1 and 6:1. Data were collected on a Bruker 900 MHz spectrometer equipped with a cold probe.

| SEC samples in which compound was detected by UV absorbance (P1, P2 oligomers; P3 monomers) (α-synuclein oligomers) | Compound | effect on α-synuclein oligomerization (immunoblot, densitometry) (α-synuclein) | effect on preformed α-synuclein fibrils (Th-T counts) [1] | Th-T counts as fraction of the Th-T counts of the control ([1]; after 4 hours of incubation, ratios 6:1, 4:1, 2:1) | interaction with monomeric α-synuclein (two-dimensional NMR) (monomeric α-synuclein) |
| --- | --- | --- | --- | --- | --- |
| detected in both P2 and P3 | O=C1c2c(O)cc(O)cc2O[C@H](c2cc(O)c(O)c(O)c2)[C@H]1O [dihydromyricetin] | inhibited α-synuclein oligomerization in a dose-dependent fashion | disaggregated preformed α-synuclein fibrils in a dose-dependent fashion |  |  |
| detected in the P2 sample | O=C(/C=C/c1ccc(O)c2c1[C@H](C(=O)O[C@H](Cc1ccc(O)c(O)c1)C(=O)O)[C@@H](c1ccc(O)c(O)c1)O2)O[C@H](Cc1ccc(O)c(O)c1)C(=O)O [salvianolic acid B] | inhibited α-synuclein oligomerization in a dose-dependent fashion |  |  |  |

| Compound | SEC samples in which compound was detected by UV absorbance (P1, P2 oligomers; P3 monomers) (α-synuclein oligomers) | effect on α-synuclein oligomerization (immunoblot, densitometry) (α-synuclein) | effect on preformed α-synuclein fibrils (Th-T counts) [1] | Th-T counts as fraction of the Th-T counts of the control ([1]; after 4 hours of incubation, ratios 6:1, 4:1, 2:1) | interaction with monomeric α-synuclein (two-dimensional NMR) (monomeric α-synuclein) |
| --- | --- | --- | --- | --- | --- |
| CC(C)=CCC[C@](C)(O[C@@H]1O[C@H](CO[C@@H]2O[C@H](CO)[C@@H](O)[C@H](O)[C@H]2O)[C@@H](O)[C@H](O)[C@H]1O)[C@H]1CC[C@]2(C)[C@@H]1[C@H](O)C[C@@H]1[C@@]3(C)CC[C@H](O[C@@H]4O[C@H](CO)[C@@H](O)[C@H](O)[C@H]4O[C@@H]4O[C@H](CO)[C@@H](O)[C@H](O)[C@H]4O)C(C)(C)[C@@H]3CC[C@]12C [Gn Rb1, ginsenoside Rb1] | detected only in the oligomeric P2 samples | potent inhibitor of α-synuclein oligomerization at all molar ratios | disaggregated in a dose-dependent fashion | ⅕ | does not interact significantly with monomeric α-synuclein |
